Where two headings read alike, the source gives them in different places. Blank lines part the entries; values can stand above or below the compound they belong to.
How the values were obtained:
[1] = tested on: IPF patients; conditions: 26-week clinical trial in IPF patients (Palmer et al.); cited from earlier work
[2] = molecular target: T1, human LPA1 (Homo sapiens, UniProt Q92633); experiment: LPA1 functional antagonist assay (LPA-induced calcium flux); type: cell-based
T1 construct: expressed in transfected cells; host or cells: Chinese hamster ovary (CHO) cells
Procedure: The effectiveness of compounds of the present invention as LPA1 inhibitors can be determined in an LPA1 functional antagonist assay as follows:
The cells were then equilibrated to room temperature for 30 minutes before the assay. […] IC50 values were determined by fitting data to a 4-parameter logistic equation (GraphPad Prism, San Diego CA).

[3] = tested on: nerve-injured mice; conditions: pretreatment, nerve-injured mice (Inoue et al.); cited from earlier work
[4] = tested on: pancreatic cancer cell lines; conditions: cited from earlier work
[5] = tested on: human foetal lung fibroblasts; conditions: Tager et al.; cited from earlier work
[6] = tested on: mouse epithelial renal cell line, MCT; conditions: MCT cells, co-treatment with LPA; cited from earlier work
[7] = tested on: UUO mice; conditions: cited from earlier work
[8] = CHO cells overexpressing human LPA1, calcium flux induced by 10 nM LPA, read-out: hLPA1 IC50

T1 sequence (Q92633 whole entry): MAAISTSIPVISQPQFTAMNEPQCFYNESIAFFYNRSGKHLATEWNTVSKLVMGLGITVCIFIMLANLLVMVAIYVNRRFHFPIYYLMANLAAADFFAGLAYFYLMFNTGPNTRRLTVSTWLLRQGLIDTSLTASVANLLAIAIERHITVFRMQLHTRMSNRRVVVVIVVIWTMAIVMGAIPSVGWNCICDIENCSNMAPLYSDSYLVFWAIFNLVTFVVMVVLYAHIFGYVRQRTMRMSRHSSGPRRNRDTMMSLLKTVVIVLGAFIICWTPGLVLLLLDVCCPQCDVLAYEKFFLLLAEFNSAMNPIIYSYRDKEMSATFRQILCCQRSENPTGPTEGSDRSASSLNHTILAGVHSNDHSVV

SMILES: Cc1noc(-c2ccc(-c3ccc(C4(C(=O)O)CC4)cc3)cc2)c1NC(=O)O[C@H](C)c1ccccc1 [BMS-986020]
rate of FVC (forced vital capacity) decline [1]: significantly reduce

IC50 [2, 8]: 316 nM
SMILES: Cc1noc(-c2ccc(OCC3CC(C(=O)O)C3)cc2)c1COC(=O)N(C)C1CCCC1 (stereo not drawn) [Example 30, 3-((4-(4-(((Cyclopentyl(methyl)carbamoyl)oxy)methyl)-3-methylisoxazol-5-yl)phenoxy)methyl)cyclobutanecarboxylic acid]

IC50 [2, 8]: 417 nM
SMILES: CN(C(=O)OCc1c(-c2ccc(OCC34CC(C(=O)O)(C3)C4)cn2)nnn1C)C1CCCC1 [Example 51, 3-(((6-(5-(((cyclopentyl(methyl)carbamoyl)oxy)methyl)-1-methyl-1H-1,2,3-triazol-4-yl)pyridin-3-yl)oxy)methyl)bicyclo[1.1.1]pentane-1-carboxylic acid]

IC50 [2, 8]: 372 nM
SMILES: Cc1nc(-c2nnn(C)c2COC(=O)N(C)CC2CCC2)ccc1OCC12CC(C(=O)O)(C1)C2 [Example 52, 3-(((6-(5-((((cyclobutylmethyl)(methyl)carbamoyl)oxy)methyl)-1-methyl-1H-1,2,3-triazol-4-yl)-2-methylpyridin-3-yl)oxy)methyl)bicyclo[1.1.1]pentane-1-carboxylic acid]

IC50 [2, 8]: 604 nM
SMILES: Cc1noc(-c2ccc(OCC34CC(C(=O)O)(C3)C4)cc2)c1COC(=O)N(C)C1CCCC1 [Example 53, 3-((4-(4-(((cyclopentyl(methyl)carbamoyl)oxy)methyl)-3-methylisoxazol-5-yl)phenoxy)methyl)bicyclo[1.1.1]pentane-1-carboxylic acid]

SMILES: CN(CC1CCC1)C(=O)OCc1c(-c2ccc(OCC34CC(C(=O)O)(C3)C4)cn2)nnn1C [Example 54, 3-(((6-(5-((((cyclobutylmethyl)(methyl)carbamoyl)oxy)methyl)-1-methyl-1H-1,2,3-triazol-4-yl)pyridin-3-yl)oxy)methyl)bicyclo[1.1.1]pentane-1-carboxylic acid]
IC50 [2]: 427 nM

IC50 [2, 8]: 1980 nM
SMILES: Cc1nc(-c2nnn(C)c2CNc2noc(CCC(C)C)n2)ccc1OCC12CC(C(=O)O)(C1)C2 [Example 55, 3-(((6-(5-(((5-isopentyl-1,2,4-oxadiazol-3-yl)amino)methyl)-1-methyl-1H-1,2,3-triazol-4-yl)-2-methylpyridin-3-yl)oxy)methyl)bicyclo[1.1.1]pentane-1-carboxylic acid]

IC50 [2, 8]: 82 nM
SMILES: Cc1nc(-c2nnn(C)c2COC(=O)N(C)CC2CCC2)ccc1OCC12CCC(C(=O)O)(C1)C2 [Example 57, 4-(((6-(5-((((cyclobutylmethyl)(methyl)carbamoyl)oxy)methyl)-1-methyl-1H-1,2,3-triazol-4-yl)-2-methylpyridin-3-yl)oxy)methyl)bicyclo[2.1.1]hexane-1-carboxylic acid]

IC50 [2, 8]: 22 nM
SMILES: Cc1nc(-c2onc(C)c2COC(=O)N(C)C2CCCC2)ccc1OCC12CCC(C(=O)O)(C1)C2 [Example 58, 4-(((6-(4-(((cyclopentyl(methyl)carbamoyl)oxy)methyl)-3-methylisoxazol-5-yl)-2-methylpyridin-3-yl)oxy)methyl)bicyclo[2.1.1]hexane-1-carboxylic acid]

SMILES: C[C@@H](N)[C@H]1CC[C@H](C(=O)Nc2ccncc2)CC1 [Example Y-27632]
allodynia and hyperalgesia [3]: completely abolished

SMILES: Cc1noc(-c2ccc(CSCCC(=O)O)cc2)c1NC(=O)OC(C)c1ccccc1Cl (stereo not drawn) [Ki16425]
LPA-induced and ascites-induced invasion activity ([4]; highly peritoneal metastatic pancreatic cancer cell line): blocked
in vitro migration in response to LPA and peritoneal fluid (ascites) from pancreatic cancer patients ([4]; pancreatic cancer cell lines (Yamada et al.)): effectively blocked
chemotaxis of human foetal lung fibroblasts induced by BAL from IPF patients [5]: blocked
LPA-induced expression of the profibrotic cytokine CTGF [6]: almost completely suppressed
development of renal fibrosis [7]: closely resembled the profile of LPA1 (−/−) mice
